According to patent EP1985629A1, “Pro-apoptotic molecules and therapeutic uses thereof” (UNIVERSITA DEGLI STUDI DI GENOVA, priority 2007, dated 2008):
pKd: −log10 of the molar value. Where a SMILES comes first, the peptide text is derived from it. [ ]: non-standard residue; d: D form. Aib = CC(C)(N)C(=O)O

Columns and labels:
caspase 3 = test: Caspase 3 activation (FITC-DEVD-FMK, FACS analysis); type: cell-based, human; settings: for cells positive for activated caspase 3: 24 h; for cells with activated caspase 3: 72 h
Description: (§1) The activation of caspase-9 (mitochondrial apoptosis) and caspase-3 (activated downstream of caspase-9), was evaluated in cell lines (10^6 cells/well in a 24 wells plate) incubated with different concentrations of 072RB (1, 10 µM for 24h, 48h and 72h, in complete RPMI medium + 10% FCS at 37°C, using the caspase-9 and caspase-3 Detection Kit (Calbiochem, Darmstadt, Germany). The assay utilizes LEHD-FMK or DEVD-FMK conjugated to fluorescein-isothiocyanate (FITC) as caspase-9 or caspase-3 in situ marker. FITC-LEHD-FMK and FITC-DEVD-FMK are cell permeable, non toxic, and irreversibly bind only to activated caspase-9 or -3 in apoptotic cells. Samples were run on a flow cytometer (FACSort, Becton Dickinson) equipped with an argon ion laser exiting FITC at 488nm, At least 10^5 events were analysed for each sample using the CellQuest computer program. Data are expressed as Log green fluorescence intensity (a.u.) vs cell number. Calibration was assessed with CALIBRITE particles (Becton Dickinson) using the AutoCOMP computer program.
(§2) Cells were incubated for 24, 48 and 72 h with 072RB (10 µM) or Int (10 µM), together with FITC-LEDH-FMK or FITC-DEVD-FMK, to detect caspase 9 and caspase 3 activation, respectively (FACS analysis). […] Furthermore, caspase 3, a downstream substrate of caspase 9, was progressively activated at increasing incubation times with 072RB. After 24 h of incubation 30% of U937, 35% of Namalwa, 22% of Jurkat cells, respectively, were positive for activated caspase 3; after 72 h of incubation 70% of U937, 60% of Namalwa, and 35% of Jurkat cells, respectively, had activated caspase 3. On the contrary, a negligible fraction of cells incubated with the Int peptide (1-3%), a % similar to that observed in untreated cells, expressed activated caspase 3.

caspase 9 = test: Caspase 9 activation (FITC-LEHD-FMK, FACS analysis); type: cell-based, human; settings: 48 h
Description: as §1, §2

Bcl-XL = biological target: T1, Bcl-XL (Homo sapiens, UniProt Q07817, S2L); test: Fluorescence anisotropy binding and competition binding assay; settings: competition binding assay: BakF-BH3 2E-8 M, competitor peptide 2E-7 M, Bcl-XL 2E-8 M to 1E-6 M; 45 min, 30°C; read-out: Weighted mean Kd
T1 construct: with the C-terminus truncated; His6; made in house; host or cells: Escherichia coli BL21 (pLys)
Description: Fluorescence Anisotropy was monitored with a Polarion Instrument (Tecan, Austria): excitation wavelength = 485 nm, emission wavelength = 535 nm. […] Anisotropy values were studied at a fixed concentration of fluoresceinated Bak BH3 molecule (2E-8 M), a fixed concentration of peptide inhibitors (2E-7 M) and increasing concentrations of Bel-XL (from 2E-8 M to 1E-6 M). Experiments were performed in 96-wells black non-binding plates (Corning), the experimental volume was always 200 µl / well. Reagents were mixed at room temperature and maintained at a constant temperature (30°C) during the measurements. Anisotropy measurements were performed at different times of incubation to assess the stability of the reactions. […]
For simple binding experiments we evaluated the Kd using a nonlinear regression analysis [NLIN SAS] to fit the Lundblad equation [38]. […]
We calculated the expected Anisotropy value solving a third degree equation obtained extending the simple binding equation to a competitive binding inhibition assay. […]
Point estimates of each equilibrium constant were evaluated using meta-analytical tools weighting each experimental result for its estimated variance. […]
Fluorescence Anisotropy (FA) is a quantitative technique to analyze the interaction of a smaller fluorescent molecule with a larger non fluorescent molecule. […]

[1] = Peptides stability in medium with 10% FBS or in 100% FBS (HPLC-MS); type: in vitro ADME; settings: 37°C
Description: Compounds were added to the medium solution of serum 10% or 100% FBS at the final concentration of 32 µM. Several extraction mixtures were attempted: MeOH; MeOH with 0,1% trifluoroacetic acid (TFA); (H2O: MeOH) 1:1, 1:4, 4;1. A perchloric acid (PCA) protein precipitation protocol was also tried. […] In both cases ice-cold methanol was added to the peptide solution. The mixture was centrifuged and the resulting supernatant was then added with ice-cold methanol (alone or containing 0,1% TFA) at a 1:1 final ratio and this procedure was repeated twice. Before extraction peptides were incubated in 10% FBS or 100% FBS at 37°C and, at different incubation times (0', 6, 24 and 48 hours), a sample of 50 µl was collected to be analyzed by HPLC-MS.

Namalwa cells = test: Morphologic analysis of apoptosis (PI, confocal microscopy); type: cell-based, human; settings: PI labeled Namalwa cells; and 48 h (072RB), 48 h (Int)
Description: After extensive washes, samples were incubated with PI (50µg/ml in PBS) and 100 units/ml Rnase type A and 10 mM EDTA (to inactivate endogenous nucleases) for 15 min at room temperature. After three washes, cells were put on a micro-slide, covered with a coverslip and analysed with an IX81 microscope equipped with He-Neon […] laser, suitable for PI fluorescence excitation (FV500, Olympus BioSystem). 10-15 fields were analysed with 40x oil/1.35NA or 60x oil/1.40NA objectives and images acquired with the Flowview 4.2b computer program.

T1 sequence (Q07817 1-212 S2L): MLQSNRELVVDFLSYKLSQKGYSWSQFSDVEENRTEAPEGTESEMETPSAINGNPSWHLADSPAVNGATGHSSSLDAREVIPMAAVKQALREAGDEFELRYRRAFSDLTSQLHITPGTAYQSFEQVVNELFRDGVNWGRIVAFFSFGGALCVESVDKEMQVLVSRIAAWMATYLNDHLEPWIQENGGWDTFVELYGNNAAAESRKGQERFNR

Compound | cells positive for activated caspase 3 (caspase 3; Jurkat, 10 µM) [%] | cells with activated caspase 3 (caspase 3; Jurkat, 10 µM) [%] | cells positive for activated caspase 3 (caspase 3; Namalwa, 10 µM) [%] | cells with activated caspase 3 (caspase 3; Namalwa, 10 µM) [%] | cells positive for activated caspase 3 (caspase 3; U937, 10 µM) [%] | cells with activated caspase 3 (caspase 3; U937, 10 µM) [%] | fraction of cells expressing activated caspase 9 (caspase 9; Jurkat, 10 µM) | fraction of cells expressing activated caspase 9 (caspase 9; Namalwa, 10 µM) | fraction of cells expressing activated caspase 9 (caspase 9; U937, 10 µM) | pKd (Bcl-XL) | half-life at 32 µM ([1]; RPMI 1640 medium with 10% fetal bovine serum (FBS), medium (RPMI 1640) with 10% FBS, calculated by linear regression) [h] | half-life at 32 µM ([1]; bovine, 100% fetal bovine serum (FBS), 100% FBS) [h] | chromatin condensation and apoptotic body formation (Namalwa cells) | fraction of cells expressing activated caspase 3 (caspase 3; 10 µM, cell line and time not specified, similar to untreated cells)
CC[C@H](C)[C@H](NC(=O)[C@H](CCCNC(=N)N)NC(=O)[C@H](CCCNC(=N)N)NC(=O)[C@H](CC(C)C)NC(=O)[C@H](CCC(=O)O)NC(=O)[C@H](CCC(N)=O)NC(=O)C(C)(C)NC(=O)[C@@H](NC(=O)[C@H](Cc1ccc(O)cc1)NC(=O)[C@@H](NC(=O)[C@H](CCC(=O)O)NC(=O)[C@@H]1CCCN1C(=O)[C@H](CCCNC(=N)N)NC(=O)[C@H](CCSC)NC(=O)[C@@H](N)CC(=O)O)[C@@H](C)CC)[C@@H](C)CC)C(=O)NCC(=O)N[C@@H](CC(=O)O)C(=O)N[C@@H](C)C(=O)N[C@@H](Cc1ccccc1)C(=O)N[C@@H](CC(N)=O)C(=O)NC(C)(C)C(=O)N[C@@H](Cc1ccc(O)cc1)C(=O)N[C@@H](CCCCN)C(=O)N[C@@H](CCCCN)C(=O)N[C@@H](Cc1c[nH]c2ccccc12)C(=O)N[C@@H](CCCCN)C(=O)N[C@@H](CCSC)C(=O)N[C@@H](CCCNC(=N)N)C(=O)N[C@@H](CCCNC(=N)N)C(=O)N[C@@H](CC(N)=O)C(=O)N1CCC[C@H]1C(=O)N[C@@H](Cc1ccccc1)C(=O)N[C@@H](Cc1c[nH]c2ccccc12)C(=O)N[C@H](C(=O)N[C@@H](CCCCN)C(=O)N[C@H](C(=O)N[C@@H](CCC(N)=O)C(=O)N[C@@H](CCCNC(=N)N)C(N)=O)[C@@H](C)CC)[C@@H](C)CC [Peptide 072RB] (H-DMRPEIYI[Aib]QELRRIGDAFN[Aib]YKKWKMRRNPFWIKIQR-NH2; N-terminus and C-terminus assumed) | 22 | 35 | 35 | 60 | 30 | 70 | 10-33% | 15-35% | 30-65% | 8.37 | 36.5 | 17.8 | exhibited chromatin condensation and apoptotic body formation | –
KKWKMRRNPFWIKIQR [Int, internalisation tag, a modified Q50P 16 aa Antennapedia IIIrd α-helix, reference compound] | – | – | – | – | – | – | 1.3% | 2.0% | 1.5% | – | – | – | – | 1-3%
